Active and inactive are the calls of the source. The calls are words filed in the database; no cut-off is given here.
Key:
REH [1] = assay: Antiproliferative activity against human REH cells after 48 hrs by MTT assay; assay type: functional, cell-based
[2] = Antiproliferative activity against human NALM6 cells after 48 hrs by MTT assay; assay type: functional, cell-based; conditions: NALM-6, 48 h
Ehrlich [3] = assay: Antitumor activity against mouse EAC cells allografted in mouse assessed as reduction of tumor volume at 25 mg/kg measured up to 14 days; assay type: functional, organism-based
Mus musculus [4] = assay: Toxicity in mouse EAC allografted mouse assessed as effect on morphology and cellular construction of organs at 25 mg/kg; assay type: organism-based; conditions: in vivo
Mus musculus [5] = assay: Toxicity in mouse EAC allografted mouse assessed as effect on organs function at 25 mg/kg; assay type: organism-based; conditions: in vivo
REH [6] = assay: Cell cycle arrest in human REH cells assessed as accumulation at sub-G1 phase after 48 hrs using propidium iodide staining; assay type: functional, cell-based
Ehrlich [7] = assay: Antitumor activity against mouse EAC cells allografted in mouse assessed as necrosis and innumerable number of apoptotic cells at 25 mg/kg measured up to 14 days; assay type: functional, organism-based
REH [8] = assay: Induction of apoptosis in human REH cells assessed as decrease in mitochondrial membrane potential using green fluorescence of JC-1 dye after 48 hrs; assay type: functional, cell-based
[9] = Antiproliferative activity against human HEK293T cells after 48 hrs by MTT assay; assay type: cell-based; conditions: HEK-293T

SMILES	IC50 (REH [1])	IC50 [2]	further results
O=C1CSC2(CCCC2)N1c1ncccn1	> 100 µM	> 100 µM	–
CC1(c2ccccc2)SCC(=O)N1c1cc(Cl)cc(Cl)c1 (configuration not stated)	> 100 µM	> 100 µM	–
O=C1CSC2(CCCCC2)N1c1ccc(OC(F)F)cc1	41.4 µM	> 100 µM	–
COc1ccc(N2C(=O)CSC2c2ccc(O)cc2)cc1OC (configuration not stated)	69.4 µM	> 100 µM	–
Cc1ccccc1N1C(=O)CSC1c1ccc(C(F)(F)F)cc1 (configuration not stated)	29.6 µM	42.6 µM	–
CN(C)c1ccc(C2SCC(=O)N2c2ccc(Br)cc2)cc1 (configuration not stated)	11.9 µM	13.2 µM	Activity (Ehrlich [3]): Active; Activity (Mus musculus [4]): Non-toxic; Activity (Mus musculus [5]): Non-toxic; Activity (REH [6]): Dose-dependent effect; Activity (Ehrlich [7]): Active; Activity (REH [8]): Dose-dependent effect; IC50 [9]: > 80 µM
COc1ccc(N2C(=O)CSC2c2cccnc2)cc1OC (configuration not stated)	> 100 µM	> 100 µM	–
COc1ccc(N2C(=O)CSC2c2ccccc2[N+](=O)[O-])cc1 (configuration not stated)	> 100 µM	93.4 µM	–
COc1cccc(N2C(=O)CSC2c2ccc(F)cc2)c1 (configuration not stated)	> 100 µM	49.8 µM	–
CC(C)(C)OC(=O)N1CCC(C2SCC(=O)N2c2ccc(N3CCN(C(=O)OC(C)(C)C)CC3)cn2)CC1 (configuration not stated)	> 100 µM	82.9 µM	–

Reference: ChEMBL document CHEMBL3603787, “Antiproliferative and tumor inhibitory studies of 2,3 disubstituted 4-thiazolidinone derivatives” (Bioorg Med Chem Lett, 2015)
